In assay [1] the test system is MV4;11 cells. The assay is described as follows: Cell viability assay (CellTiter-Glo) in MV4;11 cells, alone or with gilteritinib. Type of assay: cell-based. The note with it: Homo sapiens, MV4-11, 72 h, MV4;11 cells, three days, CellTiter-Glo, read-out: MV4.
Assay [2] deals with MOLM-13 cells. Kind of assay: Cell viability assay (CellTiter-Glo) in MOLM-13 cells, alone or with gilteritinib. The format is cell-based. The note with it: Homo sapiens, MOLM-13, 72 h, MOLM-13 cells, three days, CellTiter-Glo. On the technique in general: ATP-based viability assays read luminescence as a measure of living cells.
[3] abbreviates: compound alone (without gilteritinib), 11 IC50.
[4] abbreviates: compound with gilteritinib 10 nM, 11 IC50 gilteritinib.
The mark [5] stands for this setting: compound alone (without gilteritinib), read-out: MOLM-13 IC50.
The mark [6] stands for this setting: compound with gilteritinib 20 nM, read-out: MOLM-13 IC50 gilteritinib.

Read-outs that look alike come from different tables or passages of the source.

Here are results for 18 molecules from patent US20240050428A1 (Cullgen (Shanghai), Inc., priority 2020, published 2024).

Regarding `CN1CCC(c2ccc3nc(-c4cnn([C@H]5C[C@H](CCCNc6ccc7c(c6)C(=O)N(C6CCC(=O)NC6=O)C7=O)C5)c4)cnc3c2)CC1` (stereo partly drawn) [GS-419, 2-(2,6-dioxopiperidin-3-yl)-5-((3-(trans-3-(4-(6-(1-methylpiperidin-4-yl)quinoxalin-2-yl)-1H-pyrazol-1-yl)cyclobutyl)propyl)amino)isoindoline-1,3-dione], the IC50 in assay [1] (setting [3]) is 10 to 100 nM; in assay [1] (setting [4]) it was 10 to 100 nM; in assay [2] (setting [5]), 10 to 100 nM; in assay [2] (setting [6]), less than 10 nM.

Regarding `O=C1CCC(N2C(=O)c3ccc(NCCC[C@H]4C[C@H](n5cc(-c6cnc7cc(C8CCOCC8)ccc7n6)cn5)C4)cc3C2=O)C(=O)N1` (stereo partly drawn) [GS-420, 2-(2,6-dioxopiperidin-3-yl)-5-((3-(trans-3-(4-(6-(tetrahydro-2H-pyran-4-yl)quinoxalin-2-yl)-1H-pyrazol-1-yl)cyclobutyl)propyl)amino)isoindoline-1,3-dione], the IC50 in assay [1] (setting [3]) was 100 to 1000 nM; in assay [1] (setting [4]) it was 10 to 100 nM; in assay [2] (setting [5]), 100 to 1000 nM; in assay [2] (setting [6]) it was 10 to 100 nM.

Turning to `O=C1CCC(N2C(=O)c3ccc(NCCC[C@H]4C[C@H](n5cc(-c6cnc7cc(C8CCNCC8)ccc7n6)cn5)C4)cc3C2=O)C(=O)N1` (stereo partly drawn) [GS-421, 2-(2,6-dioxopiperidin-3-yl)-5-((3-(trans-3-(4-(6-(piperidin-4-yl)quinoxalin-2-yl)-1H-pyrazol-1-yl)cyclobutyl)propyl)amino)isoindoline-1,3-dione], the IC50 in assay [1] (setting [3]) is 10 to 100 nM; in assay [1] (setting [4]), less than 10 nM; in assay [2] (setting [5]), 10 to 100 nM; in assay [2] (setting [6]), less than 10 nM.

On to `Cc1nn([C@H]2C[C@@H](CCCNc3ccc4c(c3)C(=O)N(C3CCC(=O)NC3=O)C4=O)C2)cc1-c1cnc2cc(N3CCOCC3)ccc2n1` (stereo partly drawn) [GS-422, 2-(2,6-dioxopiperidin-3-yl)-5-((3-(cis-3-(3-methyl-4-(6-morpholinoquinoxalin-2-yl)-1H-pyrazol-1-yl)cyclobutyl)propyl)amino)isoindoline-1,3-dione], for which the IC50 in assay [1] (setting [3]) is 10 to 100 nM; in assay [1] (setting [4]), less than 10 nM; in assay [2] (setting [5]), 10 to 100 nM; in assay [2] (setting [6]), less than 10 nM.

`CN1CCN(c2ccnc(-c3cnn([C@H]4C[C@H](CCCNc5ccc6c(c5)C(=O)N(C5CCC(=O)NC5=O)C6=O)C4)c3)n2)CC1` (stereo partly drawn) [GS-423, 2-(2,6-dioxopiperidin-3-yl)-5-((3-(trans-3-(4-(4-(4-methylpiperazin-1-yl)pyrimidin-2-yl)-1H-pyrazol-1-yl)cyclobutyl)propyl)amino)isoindoline-1,3-dione]: the IC50 in assay [1] (setting [3]) was in the range of 100 to 1000 nM; in assay [1] (setting [4]), 10 to 100 nM; in assay [2] (setting [5]), 100 to 1000 nM; in assay [2] (setting [6]), 10 to 100 nM.

With `CN1CCN(c2ccnc(-c3cnn([C@H]4C[C@H](CNc5ccc6c(c5)C(=O)N(C5CCC(=O)NC5=O)C6=O)C4)c3)n2)CC1` (stereo partly drawn) [GS-424, 2-(2,6-dioxopiperidin-3-yl)-5-(((trans-3-(4-(4-(4-methylpiperazin-1-yl)pyrimidin-2-yl)-1H-pyrazol-1-yl)cyclobutyl)methyl)amino)isoindoline-1,3-dione], the IC50 in assay [1] (setting [3]) was greater than 1000 nM; in assay [1] (setting [4]), greater than 1000 nM; in assay [2] (setting [5]) it was 100 to 1000 nM; in assay [2] (setting [6]) it was 10 to 100 nM.

Take `O=C1CCC(N2C(=O)c3ccc(NCCC[C@H]4C[C@@H](n5cc(-c6cnc7cc(N8CCNCC8)ccc7n6)cn5)C4)cc3C2=O)C(=O)N1` (stereo partly drawn) [GS-425, 2-(2,6-dioxopiperidin-3-yl)-5-((3-(cis-3-(4-(6-(piperazin-1-yl)quinoxalin-2-yl)-1H-pyrazol-1-yl)cyclobutyl)propyl)amino)isoindoline-1,3-dione]: the IC50 in assay [1] (setting [3]) was greater than 1000 nM; in assay [1] (setting [4]) it was 10 to 100 nM; in assay [2] (setting [5]), 100 to 1000 nM; in assay [2] (setting [6]), 10 to 100 nM.

For `CN1CCC(c2cccc3nc(-c4cnn([C@H]5C[C@H](CCCNc6ccc7c(c6)C(=O)N(C6CCC(=O)NC6=O)C7=O)C5)c4)cnc23)CC1` (stereo partly drawn) [GS-426, 2-(2,6-dioxopiperidin-3-yl)-5-((3-(trans-3-(4-(5-(1-methylpiperidin-4-yl)quinoxalin-2-yl)-1H-pyrazol-1-yl)cyclobutyl)propyl)amino)isoindoline-1,3-dione], the IC50 is 10 to 100 nM in assay [1] (setting [3]), less than 10 nM in assay [1] (setting [4]), 10 to 100 nM in assay [2] (setting [5]) and less than 10 nM in assay [2] (setting [6]).

As to `O=C1CCC(N2C(=O)c3ccc(NCCC[C@H]4C[C@H](n5cc(-c6cnc7c(C8CCOCC8)cccc7n6)cn5)C4)cc3C2=O)C(=O)N1` (stereo partly drawn) [GS-427, 2-(2,6-dioxopiperidin-3-yl)-5-((3-(trans-3-(4-(5-(tetrahydro-2H-pyran-4-yl)quinoxalin-2-yl)-1H-pyrazol-1-yl)cyclobutyl)propyl)amino)isoindoline-1,3-dione], the IC50 in assay [1] (setting [3]) was 10 to 100 nM; in assay [1] (setting [4]) it was less than 10 nM; in assay [2] (setting [5]) it was 10 to 100 nM; in assay [2] (setting [6]), less than 10 nM.

In the case of `Cc1nn([C@H]2C[C@@H](CCCNc3ccc4c(c3)C(=O)N(C3CCC(=O)NC3=O)C4=O)C2)cc1-c1cnc2cc(N3CCN(C)CC3)ccc2n1` (stereo partly drawn) [GS-428, 2-(2,6-dioxopiperidin-3-yl)-5-((3-(cis-3-(3-methyl-4-(6-(4-methylpiperazin-1-yl)quinoxalin-2-yl)-1H-pyrazol-1-yl)cyclobutyl)propyl)amino)isoindoline-1,3-dione], the IC50 in assay [1] (setting [3]) was 10 to 100 nM; in assay [1] (setting [4]) it was less than 10 nM; in assay [2] (setting [5]), 10 to 100 nM; in assay [2] (setting [6]), less than 10 nM.

For `O=C1CCC(N2C(=O)c3ccc(NCCC[C@H]4C[C@@H](n5cc(-c6cnc7cc(C8CCNCC8)ccc7n6)cn5)C4)cc3C2=O)C(=O)N1` (stereo partly drawn) [GS-429, 2-(2,6-dioxopiperidin-3-yl)-5-((3-(cis-3-(4-(6-(piperidin-4-yl)quinoxalin-2-yl)-1H-pyrazol-1-yl)cyclobutyl)propyl)amino)isoindoline-1,3-dione], the IC50 was 100 to 1000 nM in assay [1] (setting [3]), less than 10 nM in assay [1] (setting [4]), 100 to 1000 nM in assay [2] (setting [5]) and 10 to 100 nM in assay [2] (setting [6]).

As for `O=C1CCC(N2C(=O)c3ccc(NCCC[C@H]4C[C@@H](n5cc(-c6cnc7cc(C8CCOCC8)ccc7n6)cn5)C4)cc3C2=O)C(=O)N1` (stereo partly drawn) [GS-430, 2-(2,6-dioxopiperidin-3-yl)-5-((3-(cis-3-(4-(6-(tetrahydro-2H-pyran-4-yl)quinoxalin-2-yl)-1H-pyrazol-1-yl)cyclobutyl)propyl)amino)isoindoline-1,3-dione], the IC50 in assay [1] (setting [3]) is 100 to 1000 nM; in assay [1] (setting [4]), 10 to 100 nM; in assay [2] (setting [5]) it was greater than 1000 nM; in assay [2] (setting [6]), 10 to 100 nM.

Regarding `O=C1CCC(N2C(=O)c3ccc(NCCC[C@H]4C[C@H](n5cc(-c6cnc7c(C8CCNCC8)cccc7n6)cn5)C4)cc3C2=O)C(=O)N1` (stereo partly drawn) [GS-431, 2-(2,6-dioxopiperidin-3-yl)-5-((3-(trans-3-(4-(5-(piperidin-4-yl)quinoxalin-2-yl)-1H-pyrazol-1-yl)cyclobutyl)propyl)amino)isoindoline-1,3-dione], the IC50 in assay [1] (setting [3]) was less than 10 nM; in assay [1] (setting [4]) it was less than 10 nM; in assay [2] (setting [5]), 10 to 100 nM; in assay [2] (setting [6]), less than 10 nM.

For the molecule `CN1CCC(c2ccc3nc(-c4cnn([C@H]5C[C@@H](CCCNc6ccc7c(c6)C(=O)N(C6CCC(=O)NC6=O)C7=O)C5)c4)cnc3c2)CC1` (stereo partly drawn) [GS-432, 2-(2,6-dioxopiperidin-3-yl)-5-((3-(cis-3-(4-(6-(1-methylpiperidin-4-yl)quinoxalin-2-yl)-1H-pyrazol-1-yl)cyclobutyl)propyl)amino)isoindoline-1,3-dione], the IC50 in assay [1] (setting [3]) was greater than 1000 nM; in assay [1] (setting [4]), 10 to 100 nM; in assay [2] (setting [5]) it was greater than 1000 nM; in assay [2] (setting [6]), 10 to 100 nM.

On to `O=C1CCC(N2C(=O)c3ccc(NCCC[C@H]4C[C@H](n5cc(C6CCOCC6)cn5)C4)cc3C2=O)C(=O)N1` (stereo partly drawn) [GS-433, 2-(2,6-dioxopiperidin-3-yl)-5-((3-(trans-3-(4-(tetrahydro-2H-pyran-4-yl)-1H-pyrazol-1-yl)cyclobutyl)propyl)amino)isoindoline-1,3-dione], for which the IC50 in assay [1] (setting [3]), in assay [1] (setting [4]), in assay [2] (setting [5]) and in assay [2] (setting [6]) was greater than 1000 nM each time.

For `Cc1nn([C@H]2C[C@@H](CCCNc3ccc4c(c3)C(=O)N(C3CCC(=O)NC3=O)C4=O)C2)cc1-c1cnc2cc(N3CCNCC3)ccc2n1` (stereo partly drawn) [GS-434, 2-(2,6-dioxopiperidin-3-yl)-5-((3-(cis-3-(3-methyl-4-(6-(piperazin-1-yl)quinoxalin-2-yl)-1H-pyrazol-1-yl)cyclobutyl)propyl)amino)isoindoline-1,3-dione], the IC50 in assay [1] (setting [3]) is less than 10 nM; in assay [1] (setting [4]), less than 10 nM; in assay [2] (setting [5]), 10 to 100 nM; in assay [2] (setting [6]), less than 10 nM.

For the molecule `CN1CCC(c2cnn([C@H]3C[C@H](CCCNc4ccc5c(c4)C(=O)N(C4CCC(=O)NC4=O)C5=O)C3)c2)CC1` (stereo partly drawn) [GS-435, 2-(2,6-dioxopiperidin-3-yl)-5-((3-(trans-3-(4-(1-methylpiperidin-4-yl)-1H-pyrazol-1-yl)cyclobutyl)propyl)amino)isoindoline-1,3-dione], the IC50 in assay [1] (setting [3]) is 100 to 1000 nM; in assay [1] (setting [4]), greater than 1000 nM; in assay [2] (setting [5]), greater than 1000 nM; in assay [2] (setting [6]) it was 100 to 1000 nM.

For `CN1CCN(c2nccc(-c3cnn([C@H]4C[C@H](CCCNc5ccc6c(c5)C(=O)N(C5CCC(=O)NC5=O)C6=O)C4)c3)n2)CC1` (stereo partly drawn) [GS-436, 2-(2,6-dioxopiperidin-3-yl)-5-((3-(trans-3-(4-(2-(4-methylpiperazin-1-yl)pyrimidin-4-yl)-1H-pyrazol-1-yl)cyclobutyl)propyl)amino)isoindoline-1,3-dione], the IC50 is greater than 1000 nM in assay [1] (setting [3]), 100 to 1000 nM in assay [1] (setting [4]), greater than 1000 nM in assay [2] (setting [5]) and 100 to 1000 nM in assay [2] (setting [6]).
